The target in series [1] is T1, CaSTR2 (Camptotheca acuminata, UniProt A0A8F2YJ04).
T1 construct: gene STR2; recombinant from pET30a in E. coli BL21(DE3), Ni resin purified
T1 sequence (A0A8F2YJ04 32-329): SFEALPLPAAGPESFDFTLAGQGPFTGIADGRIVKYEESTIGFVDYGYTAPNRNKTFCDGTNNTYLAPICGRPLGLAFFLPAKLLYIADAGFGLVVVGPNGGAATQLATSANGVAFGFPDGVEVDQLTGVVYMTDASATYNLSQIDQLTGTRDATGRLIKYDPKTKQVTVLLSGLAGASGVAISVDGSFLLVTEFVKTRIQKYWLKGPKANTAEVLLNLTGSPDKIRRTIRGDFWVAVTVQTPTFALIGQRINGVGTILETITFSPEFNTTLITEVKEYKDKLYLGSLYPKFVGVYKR
Nature of the series: LC-MS of strictosidinic acid formation. Type of series: biochemical. Particulars: tryptamine co-substrate.

Series [2] concerns the target T2, OpLAMT (Ophiorrhiza pumila, UniProt A0A8F2YIU9).
T2 construct: gene LAMT; recombinant from pET-30a in E. coli BL21(DE3), Ni resin purified
T2 sequence (A0A8F2YIU9 1-381): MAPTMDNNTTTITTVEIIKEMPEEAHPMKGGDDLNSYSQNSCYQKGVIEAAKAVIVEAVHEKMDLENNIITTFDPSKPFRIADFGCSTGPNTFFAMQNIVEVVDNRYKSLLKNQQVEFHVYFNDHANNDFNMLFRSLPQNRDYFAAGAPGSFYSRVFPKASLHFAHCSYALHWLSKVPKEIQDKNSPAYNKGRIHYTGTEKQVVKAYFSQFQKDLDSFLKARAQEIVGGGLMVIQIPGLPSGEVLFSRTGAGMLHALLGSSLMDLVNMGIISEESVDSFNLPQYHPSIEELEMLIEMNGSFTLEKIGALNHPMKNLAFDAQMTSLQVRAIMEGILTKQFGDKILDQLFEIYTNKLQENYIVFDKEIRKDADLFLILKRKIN
Nature of the series: assay of secologanin formation, printed as microsome assay with recombinant OpLAMT. Type of series: biochemical. Particulars: SAM.

Another series deals with T3, OpSLS3 (Ophiorrhiza pumila, UniProt A0A8F3BRG6).
T3 construct: gene SLS3; expressed from pESC-Leu in yeast WAT11, microsomes
T3 sequence (A0A8F3BRG6 1-521): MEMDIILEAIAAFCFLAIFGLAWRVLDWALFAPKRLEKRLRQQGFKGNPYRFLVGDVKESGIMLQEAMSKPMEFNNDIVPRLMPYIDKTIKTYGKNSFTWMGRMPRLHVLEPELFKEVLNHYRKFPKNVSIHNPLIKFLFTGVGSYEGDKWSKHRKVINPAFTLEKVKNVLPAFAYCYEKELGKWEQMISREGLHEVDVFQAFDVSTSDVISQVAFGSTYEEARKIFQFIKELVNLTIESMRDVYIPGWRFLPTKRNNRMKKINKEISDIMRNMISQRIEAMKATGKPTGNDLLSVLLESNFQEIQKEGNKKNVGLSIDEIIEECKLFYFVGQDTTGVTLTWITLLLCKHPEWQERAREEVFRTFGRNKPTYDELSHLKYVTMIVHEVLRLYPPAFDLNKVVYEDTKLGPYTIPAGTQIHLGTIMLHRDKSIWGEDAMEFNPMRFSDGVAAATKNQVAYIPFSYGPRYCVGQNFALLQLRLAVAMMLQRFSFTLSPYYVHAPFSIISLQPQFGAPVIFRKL
Nature of the series: yeast microsome assay, HPLC of secologanin. Type of series: biochemical. Particulars: 1 mM NADPH; 30 °C.

A further series deals with T4, OpSLS1 (Ophiorrhiza pumila, UniProt A0A8F2YIW0).
T4 construct: gene SLS1; expressed from pESC-Leu in yeast WAT11, microsomes
T4 sequence (A0A8F2YIW0 1-522): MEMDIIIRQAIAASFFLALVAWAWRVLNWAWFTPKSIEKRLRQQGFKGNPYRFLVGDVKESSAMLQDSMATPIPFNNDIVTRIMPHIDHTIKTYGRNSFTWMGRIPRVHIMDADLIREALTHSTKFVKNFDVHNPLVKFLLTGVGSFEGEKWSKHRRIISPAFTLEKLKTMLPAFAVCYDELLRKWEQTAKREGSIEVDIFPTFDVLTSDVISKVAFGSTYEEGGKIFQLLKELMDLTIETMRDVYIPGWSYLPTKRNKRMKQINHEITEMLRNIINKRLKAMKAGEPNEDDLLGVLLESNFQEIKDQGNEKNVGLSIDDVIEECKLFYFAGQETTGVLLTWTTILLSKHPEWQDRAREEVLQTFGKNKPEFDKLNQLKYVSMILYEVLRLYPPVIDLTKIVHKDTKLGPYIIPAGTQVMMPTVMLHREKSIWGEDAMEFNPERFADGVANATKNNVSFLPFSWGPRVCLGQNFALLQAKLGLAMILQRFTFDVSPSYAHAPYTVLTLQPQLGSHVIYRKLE
In words: yeast microsome assay, HPLC of secologanin. Particulars: 1 mM NADPH; 30 °C. The series is classed as biochemical.

For another series, the target named is T5, OpSLS4 (Ophiorrhiza pumila, UniProt A0A8F3BRW9).
T5 construct: gene SLS4; expressed from pESC-Leu in yeast WAT11, microsomes
In words: yeast microsome assay, HPLC of secologanin. The series is classed as biochemical. As to conditions: 1 mM NADPH; 30 °C.

A further series has as its target T6, OpSLS6 (Ophiorrhiza pumila, UniProt A0A8F3BQ54).
T6 construct: gene SLS6; expressed from pESC-Leu in yeast WAT11, microsomes
T6 sequence (A0A8F3BQ54 1-516): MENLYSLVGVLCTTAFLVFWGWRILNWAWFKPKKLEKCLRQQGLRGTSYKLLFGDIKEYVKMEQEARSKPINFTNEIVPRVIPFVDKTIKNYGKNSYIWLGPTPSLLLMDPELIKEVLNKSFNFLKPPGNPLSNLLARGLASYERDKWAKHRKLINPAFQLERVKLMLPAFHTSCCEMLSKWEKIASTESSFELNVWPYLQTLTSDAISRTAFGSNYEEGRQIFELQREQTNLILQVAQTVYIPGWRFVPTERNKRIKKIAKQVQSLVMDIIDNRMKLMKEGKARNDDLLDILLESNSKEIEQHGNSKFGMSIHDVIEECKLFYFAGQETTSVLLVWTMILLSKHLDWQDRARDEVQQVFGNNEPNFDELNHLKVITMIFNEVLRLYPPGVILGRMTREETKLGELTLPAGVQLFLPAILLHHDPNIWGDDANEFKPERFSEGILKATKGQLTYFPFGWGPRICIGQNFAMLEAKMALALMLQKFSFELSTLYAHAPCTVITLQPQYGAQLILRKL
In words: yeast microsome assay, HPLC of secologanin. As to conditions: 1 mM NADPH; 30 °C. The series is classed as biochemical.

A further series addresses T7, OpSLS5 (Ophiorrhiza pumila, UniProt A0A8F3BPP9).
T7 construct: gene SLS5; expressed from pESC-Leu in yeast WAT11, microsomes
T7 sequence (A0A8F3BPP9 1-521): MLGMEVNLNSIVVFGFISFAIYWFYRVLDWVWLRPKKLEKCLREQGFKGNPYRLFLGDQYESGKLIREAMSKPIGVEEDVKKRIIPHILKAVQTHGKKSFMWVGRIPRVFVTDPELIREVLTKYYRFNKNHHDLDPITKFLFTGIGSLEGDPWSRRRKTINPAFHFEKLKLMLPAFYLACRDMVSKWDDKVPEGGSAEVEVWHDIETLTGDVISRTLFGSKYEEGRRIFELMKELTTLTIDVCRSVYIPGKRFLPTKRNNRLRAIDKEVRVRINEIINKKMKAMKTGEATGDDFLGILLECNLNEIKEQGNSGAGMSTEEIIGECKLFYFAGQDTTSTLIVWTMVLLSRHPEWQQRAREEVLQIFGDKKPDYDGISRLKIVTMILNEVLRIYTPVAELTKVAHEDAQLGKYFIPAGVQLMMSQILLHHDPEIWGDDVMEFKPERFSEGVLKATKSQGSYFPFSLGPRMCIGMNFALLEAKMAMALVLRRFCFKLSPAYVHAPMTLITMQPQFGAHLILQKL
In words: yeast microsome assay, HPLC of secologanin. Type of series: biochemical. Particulars: 1 mM NADPH; 30 °C.

The target of a further series is T8, CaSTR1 (Camptotheca acuminata, UniProt A0A8F2YIY3).
T8 construct: gene STR1; recombinant from pET30a in E. coli BL21(DE3), Ni resin purified
T8 sequence (A0A8F2YIY3 73-370): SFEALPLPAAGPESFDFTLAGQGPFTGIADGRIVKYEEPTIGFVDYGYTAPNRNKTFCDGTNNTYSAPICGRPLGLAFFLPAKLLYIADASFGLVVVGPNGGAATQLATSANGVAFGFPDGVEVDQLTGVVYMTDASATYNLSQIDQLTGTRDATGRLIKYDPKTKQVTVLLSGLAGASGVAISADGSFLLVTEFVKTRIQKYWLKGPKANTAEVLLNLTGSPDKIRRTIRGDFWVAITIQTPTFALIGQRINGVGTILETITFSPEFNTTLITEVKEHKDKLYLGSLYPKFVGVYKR
In words: LC-MS of strictosidine formation. Type of series: biochemical. Particulars: tryptamine co-substrate.

The target in the next series is T9, CaSTR3 (Camptotheca acuminata, UniProt A0A8F2YIV8).
T9 construct: gene STR3; recombinant from pET30a in E. coli BL21(DE3), Ni resin purified
T9 sequence (A0A8F2YIV8 31-330): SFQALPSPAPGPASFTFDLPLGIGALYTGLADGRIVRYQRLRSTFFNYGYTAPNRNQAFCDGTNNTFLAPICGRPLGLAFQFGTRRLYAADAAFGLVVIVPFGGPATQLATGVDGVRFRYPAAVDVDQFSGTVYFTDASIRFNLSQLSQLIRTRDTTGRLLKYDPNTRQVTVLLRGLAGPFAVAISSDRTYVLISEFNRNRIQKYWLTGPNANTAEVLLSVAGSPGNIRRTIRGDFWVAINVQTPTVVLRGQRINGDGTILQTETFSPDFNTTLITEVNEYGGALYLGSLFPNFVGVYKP
In words: LC-MS of strictosidine formation. Type of series: biochemical. Particulars: tryptamine co-substrate.

Series [3] concerns the target T1, CaSTR2. In words: LC-MS of strictosidine formation. As to conditions: tryptamine co-substrate. The series is classed as biochemical.
In series [4] the target is T2, OpLAMT. In words: HPLC assay, loganin formation. The series is classed as biochemical. As to conditions: 1 mM SAM; pH 7.5; 30 °C.
Substrate in series [5]: C=C[C@H]1[C@H](O[C@@H]2O[C@H](CO)[C@@H](O)[C@H](O)[C@H]2O)OC=C(C(=O)OC)[C@H]1CC=O
In words: LC-MS of strictosidine formation. Type of series: biochemical, Ophiorrhiza pumila. As to conditions: tryptamine co-substrate. The source says:
LC-MS of strictosidine formation on OpSTR | we furtherly characterized the kinetic parameters of OpSTR using LCMS

Broadly, the Km is the concentration of substrate that gives half-maximal velocity. One may read the Vmax as the rate approached at saturating substrate. By kcat is commonly meant the number of substrate molecules converted per active site and unit of time at saturation. One may read the kcat/Km as the turnover number divided by the Michaelis constant.

T5 sequence (A0A8F3BRW9 1-517): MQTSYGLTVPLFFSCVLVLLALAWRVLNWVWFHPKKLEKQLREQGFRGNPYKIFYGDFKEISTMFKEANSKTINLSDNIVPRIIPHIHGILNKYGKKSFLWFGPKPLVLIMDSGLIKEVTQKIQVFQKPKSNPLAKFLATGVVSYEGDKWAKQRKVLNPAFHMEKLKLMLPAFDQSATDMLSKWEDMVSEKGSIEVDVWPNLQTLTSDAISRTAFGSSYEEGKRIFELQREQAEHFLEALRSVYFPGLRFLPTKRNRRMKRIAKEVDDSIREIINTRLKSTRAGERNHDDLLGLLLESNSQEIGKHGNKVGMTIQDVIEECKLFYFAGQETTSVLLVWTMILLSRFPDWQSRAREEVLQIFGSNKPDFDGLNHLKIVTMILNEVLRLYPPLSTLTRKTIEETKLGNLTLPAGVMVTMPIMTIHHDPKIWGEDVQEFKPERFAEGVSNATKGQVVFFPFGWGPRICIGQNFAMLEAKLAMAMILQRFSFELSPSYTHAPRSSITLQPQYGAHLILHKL

On to `C=C[C@@H]1C(CC=O)C(C(=O)O)=CO[C@H]1O[C@@H]1O[C@H](CO)[C@@H](O)[C@H](O)[C@H]1O` (stereo partly drawn) [secologanic acid], for which the “LC-MS of strictosidinic acid formation” value at CaSTR2 [1] is “OpSTR and CaSTR2 used both secologanin and secologanic acid activity as their substrates”. Further, on OpLAMT [2], the “assay of secologanin formation, printed as microsome assay with recombinant OpLA” value is reported as “a microsome assay with secologanic acid as a substrate for recombinant OpLAMT revealed methylation”.
For the molecule `COC(=O)C1=CO[C@@H](O[C@@H]2O[C@H](CO)[C@@H](O)[C@H](O)[C@H]2O)[C@@H]2[C@@H](C)[C@@H](O)C[C@H]12` [loganin], the “yeast microsome assay, HPLC of secologanin” value on OpSLS3 was “five OpSLS proteins (OpSLS1, OpSLS3, OpSLS4, OpSLS5, OpSLS6) exhibited secologanin synthase activity”; on OpSLS1, “five OpSLS proteins (OpSLS1, OpSLS3, OpSLS4, OpSLS5, OpSLS6) exhibited secologanin synthase activity”; on OpSLS4, “five OpSLS proteins (OpSLS1, OpSLS3, OpSLS4, OpSLS5, OpSLS6) exhibited secologanin synthase activity”; at OpSLS6 it was “five OpSLS proteins (OpSLS1, OpSLS3, OpSLS4, OpSLS5, OpSLS6) exhibited secologanin synthase activity”; at OpSLS5, “five OpSLS proteins (OpSLS1, OpSLS3, OpSLS4, OpSLS5, OpSLS6) exhibited secologanin synthase activity”.
For the molecule `C=C[C@H]1[C@H](O[C@@H]2O[C@H](CO)[C@@H](O)[C@H](O)[C@H]2O)OC=C(C(=O)OC)[C@H]1CC=O` [secologanin], the “LC-MS of strictosidine formation” value on CaSTR1 is “NnSTR, CaSTR1, and CaSTR3 displayed substrate specificity towards secologanin only”; on CaSTR3, “NnSTR, CaSTR1, and CaSTR3 displayed substrate specificity towards secologanin only”; at CaSTR2 [3], “OpSTR and CaSTR2 used both secologanin and secologanic acid activity as their substrates”.
For the molecule `C[C@@H]1[C@H]2[C@H](O[C@@H]3O[C@H](CO)[C@@H](O)[C@H](O)[C@H]3O)OC=C(C(=O)O)[C@H]2C[C@@H]1O` [loganic acid], the “HPLC assay, loganin formation” value at OpLAMT [4] is “The purified recombinant protein converted loganic acid and S-adenosyl methionine (SAM) into loganin”.

B1: OpSTR (Ophiorrhiza pumila) (protein)
chain: SPEFFEFIEAPSYGPNAYAFDSDGELYASVEDGRIIKYDKPSNKFLTHAVASPIWNNALCENNTNQDLKPLCGRVYDFGFHYETQRLYIADCYFGLGFVGPDGGHAIQLATSGDGVEFKWLYALAIDQQAGFVYVTDVSTKYDDRGVQDIIRINDTTGRLIKYDPSTEEVTVLMKGLNIPGGTEVSKDGSFVLVGEFASHRILKYWLKGPKANTSEFLLKVRGPGNIKRTKDGDFWVASSDNNGITVTPRGIRFDEFGNILEVVAIPLPYKGEHIEQVQEHDGALFVGSLFHEFVGILHNYKSSVDHHQEKNSGGLNASFKEFSSF
notes: recombinant from pET30a in E. coli BL21(DE3), Ni resin purified
For the molecule B1, in series [5], the Km is 382 ± 68.1 µM, the Vmax is 0.0377 µmol/min/mg, the kcat was determined as 0.0524 s⁻¹ and the kcat/Km was found to be 137 M⁻¹ s⁻¹.
